From ChEMBL document CHEMBL4385664, “Targeting TRAIL” (Bioorg Med Chem Lett, 2019) come the findings set out here.

A value given as a limit tells only on which side of the number the result lay.

Broadly, the IC50 is the concentration that inhibits the measured activity by half.

This test can be described thus: Activation of TRAIL receptor in human T98G cells assessed as reduction in cel viability by Cell-titer-Glo luminescent cell viability assay. Type of test: cell-based.
With `N=C1S/C(=C\c2ccc(-c3ccc4c(c3)C(=O)NC4=O)o2)C(=O)N1c1ccc(Br)cc1`, the IC50 came out at 2 µM.

Regarding `COc1ccc(N2C(=N)S/C(=C\c3ccc(-c4ccc5c(c4)C(=O)N(Cc4ccccc4)C5=O)o3)C2=O)cc1`, the IC50 is > 30 µM.

For `N=C1S/C(=C\c2ccc(-c3ccc4c(c3)C(=O)NC4=O)o2)C(=O)N1c1ccccc1`, the IC50 is > 30 µM.

`COc1ccc(N2C(=N)S/C(=C\c3ccc(-c4ccc5c(c4)C(=O)NC5=O)o3)C2=O)cc1`: the half-maximal inhibitory concentration (IC50) was > 30 µM.

`Cc1ccc(N2C(=N)S/C(=C\c3ccc(-c4ccc5c(c4)C(=O)NC5=O)o3)C2=O)cc1`: the IC50 was > 30 µM.

Turning to `COc1ccc(N2C(=N)S/C(=C\c3ccc(-c4ccc5c(c4)C(=O)N(C)C5=O)o3)C2=O)cc1`, the IC50 is > 30 µM.

For the molecule `COc1ccc(N2C(=N)S/C(=C\c3ccc(-c4ccccc4)o3)C2=O)cc1`, the half-maximal inhibitory concentration (IC50) is > 30 µM.

Take `N=C1S/C(=C\c2ccc(-c3ccc4c(c3)C(=O)NC4=O)o2)C(=O)N1c1ccccn1`: the IC50 is > 30 µM.

In the case of `Cc1csc(N2C(=N)S/C(=C\c3ccc(-c4ccc5c(c4)C(=O)NC5=O)o3)C2=O)n1`, the concentration for half-maximal inhibition (IC50) was > 30 µM.

Turning to `CN(C)c1ccc(N2C(=N)S/C(=C\c3ccc(-c4ccc5c(c4)C(=O)NC5=O)o3)C2=O)cc1`, the IC50 was > 30 µM.

Take `COc1ccc(N2C(=N)S/C(=C\c3ccc(-c4ccc5c(c4)C(=O)NC5=O)s3)C2=O)cc1`: the IC50 was found to be 10 µM.

Regarding `N=C1S/C(=C\c2ccc(-c3ccc4c(c3)C(=O)NC4=O)o2)C(=O)N1c1ccc(Cl)cc1`, the half-inhibitory concentration (IC50) was 25 µM.

Turning to `COc1ccc(N2C(=N)S/C(=C\c3ccc(-c4cccnc4)o3)C2=O)cc1`, the IC50 is 25 µM.

For `N=C1S/C(=C\c2ccc(-c3ccc4c(c3)C(=O)NC4=O)o2)C(=O)N1c1ccc(F)cc1`, the IC50 is 20 µM.

With `COc1cccc(N2C(=N)S/C(=C\c3ccc(-c4ccc5c(c4)C(=O)NC5=O)o3)C2=O)c1`, the IC50 stood at 10 µM.

In the case of `COc1ccc(N2C(=N)S/C(=C\c3ccc(-c4ccncc4)o3)C2=O)cc1`, the IC50 was determined as 20 µM.

Consider `CN1C(=N)S/C(=C\c2ccc(-c3ccc4c(c3)C(=O)NC4=O)o2)C1=O`, for which the IC50 was > 30 µM.

Take `COc1ccc(N2C(=N)S/C(=C\c3ccc(-c4cncnc4)o3)C2=O)cc1`: the IC50 was > 30 µM.

Take `COc1ccc(N2C(=O)S/C(=C\c3ccc(-c4ccc5c(c4)C(=O)NC5=O)o3)C2=O)cc1`: the IC50 is > 30 µM.

Take `N=C1S/C(=C\c2ccc(-c3ccc4c(c3)C(=O)NC4=O)o2)C(=O)N1c1ccc(C(F)(F)F)cc1`: the IC50 was > 30 µM.

As to `C=CCN1C(=N)S/C(=C\c2ccc(-c3ccc4c(c3)C(=O)NC4=O)o2)C1=O`, the concentration for half-maximal inhibition (IC50) is > 30 µM.

Regarding `N=C1S/C(=C\c2ccc(-c3ccc4c(c3)C(=O)NC4=O)o2)C(=O)N1c1ncc[nH]1`, the IC50 came to 20 µM.

In the case of `COc1ccc(N2C(=N)S/C(=C\c3ccc(-c4ccc(OC)c(F)c4)o3)C2=O)cc1`, the IC50 came to 20 µM.

`COc1ccc(/C=C2\SC(=N)N(c3ccc(OC)cc3)C2=O)cc1`: the 50% inhibitory concentration (IC50) was > 30 µM.
